Patent US12011444B2, “N-substituted indole derivatives as PGE2 receptor modulators” (Idorsia Pharmaceuticals Ltd, priority 2015, dated 2024)

What was measured:
[1] = target: PTRGER4 (EP4) (Homo sapiens (Human), UniProt P35408); test: hEP4 b-arrestin assay (PathHunter HEK 293 PTGER4 b-arrestin cells); assay type: cell-based
Method in brief: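 Stably transfected HEK293 cells carrying EP4–ProLink and β-arrestin 2–EA (β-gal fragment complementation), pre-incubated with compound 15 min at 37 °C, then stimulated with PGE2 (20 nM final) for 120 min at 37 °C. Chemiluminescence read after 1 h detection reagent at room temperature; activity per concentration expressed as percent of DMSO control.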

[2] = target: PTGER2 (EP2) (Homo sapiens (Human), UniProt P43116); test: hEP2 b-arrestin assay (PathHunter HEK 293 PTGER2 b-arrestin cells); assay type: cell-based
Chain of PTGER2 (EP2) (P43116 whole entry, the tested form may be a part): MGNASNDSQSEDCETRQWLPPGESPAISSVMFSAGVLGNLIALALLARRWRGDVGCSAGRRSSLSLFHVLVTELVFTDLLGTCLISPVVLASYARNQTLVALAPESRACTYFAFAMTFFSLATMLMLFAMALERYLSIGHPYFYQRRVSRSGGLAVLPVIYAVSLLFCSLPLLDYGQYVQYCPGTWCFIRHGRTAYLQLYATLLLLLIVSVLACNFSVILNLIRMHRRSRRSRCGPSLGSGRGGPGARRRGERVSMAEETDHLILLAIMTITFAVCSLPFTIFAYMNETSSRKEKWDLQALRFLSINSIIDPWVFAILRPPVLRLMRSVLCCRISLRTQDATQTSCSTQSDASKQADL
Method in brief: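 HEK293 cells expressing ProLink-tagged EP2 and EA-fused β-arrestin 2 (enzyme fragment complementation) were seeded 24 h, pre-incubated with compound 15 min at 37 °C, then stimulated with 5 μM PGE2 (final) for 120 min.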

[3] = antagonistic activity on hEP4, mean where measured multiple times
[4] = antagonistic activity on hEP2, mean where measured multiple times
[5] = hEP4 b-arrestin assay (values without asterisk)
[6] = hEP2 b-arrestin assay (values without asterisk)

Chain of PTRGER4 (EP4) (P35408 whole entry, looked up, the tested form may be a part): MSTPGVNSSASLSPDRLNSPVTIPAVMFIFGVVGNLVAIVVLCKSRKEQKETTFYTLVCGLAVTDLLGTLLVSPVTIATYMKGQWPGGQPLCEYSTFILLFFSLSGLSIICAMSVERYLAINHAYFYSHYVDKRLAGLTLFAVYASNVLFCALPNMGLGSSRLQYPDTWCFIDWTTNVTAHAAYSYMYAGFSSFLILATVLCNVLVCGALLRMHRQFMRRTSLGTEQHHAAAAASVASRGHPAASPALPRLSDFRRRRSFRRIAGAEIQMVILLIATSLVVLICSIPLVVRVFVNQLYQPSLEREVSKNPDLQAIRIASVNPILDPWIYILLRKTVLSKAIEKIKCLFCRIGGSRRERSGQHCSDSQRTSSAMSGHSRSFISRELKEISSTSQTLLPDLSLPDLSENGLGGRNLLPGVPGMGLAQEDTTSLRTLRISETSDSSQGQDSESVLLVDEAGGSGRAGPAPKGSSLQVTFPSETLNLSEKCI

SMILES: CCOc1cc(-c2cc(NCCn3c(C)cc4cc(F)c(Cl)c(Cl)c43)ncn2)sc1C(=O)O [compound 272]
- IC50 [1, 3]: 716 nM
- IC50 [2, 4]: 8 nM

SMILES: Cc1cc(F)cc2c1cc(C)n2CCNc1cc(-c2ccc(-c3c[nH]cn3)cc2)ncn1 [compound 69, [2-(6-Fluoro-2,4-dimethyl-indol-1-yl)-ethyl]-{6-[4-(1H-imidazol-4-yl)-phenyl]-pyrimidin-4-yl}-amine]
- IC50 [1, 3]: 94 nM
- IC50 [2, 4]: 29 nM

SMILES: CCc1cc(-c2cc(NCCn3c(C#N)cc4c(OC)ccc(F)c43)ncn2)ccc1C(=O)O [Example 948, 4-{6-[2-(2-Cyano-7-fluoro-4-methoxy-indol-1-yl)-ethylamino]-pyrimidin-4-yl}-2-ethyl-benzoic acid]
- IC50 [1, 5]: 45 nM
- IC50 [2, 6]: 50 nM

SMILES: CCOc1cc(-c2cc(NCCn3c(C)cc4c(OC)ccc(F)c43)ncn2)cc(C)c1C(=O)O [compound 366, 2-Ethoxy-4-{6-[2-(7-fluoro-4-methoxy-2-methyl-indol-1-yl)-ethylamino]-pyrimidin-4-yl}-6-methyl-benzoic acid]
- IC50 [1, 3]: 262 nM
- IC50 [2, 4]: 22 nM

SMILES: Cc1ccc(F)c2c1cc(C)n2CCNc1cc(-c2ccc3[nH]cnc3c2)ncn1 [compound 164]
- IC50 [1, 3]: 520 nM
- IC50 [2, 4]: 113 nM

SMILES: CCCc1cc(-c2cc(NCCn3c(C)cc4c(C#N)ccc(F)c43)ncn2)ccc1C(=O)O [compound 393]
- IC50 [1, 3]: 745 nM
- IC50 [2, 4]: 9 nM

SMILES: CCCc1cc(-c2cc(NCCn3c(C)cc4cc(C)cc(Cl)c43)ncn2)ccc1C(=O)O [compound 266]
- IC50 [1, 3]: 953 nM
- IC50 [2, 4]: 53 nM

SMILES: CCNc1cc(-c2cc(NCCn3c(C)cc4c(OC)ccc(F)c43)ncn2)cc(Cl)c1C(=O)O [compound 381, 2-Chloro-6-ethylamino-4-{6-[2-(7-fluoro-4-methoxy-2-methyl-indol-1-yl)-ethylamino]-pyrimidin-4-yl}-benzoic acid]
- IC50 [1, 3]: 84 nM
- IC50 [2, 4]: 3 nM

SMILES: COc1ccc(F)c2c1c(F)c(C)n2CCNc1cc(-c2cc(C(F)(F)F)c(C(=O)O)s2)ncn1 [Example 1058, 5-{6-[2-(3,7-Difluoro-4-methoxy-2-methyl-indol-1-yl)-ethylamino]-pyrimidin-4-yl}-3-trifluoromethyl-thiophene-2-carboxylic acid]
- IC50 [1, 5]: 19 nM
- IC50 [2, 6]: 51 nM

SMILES: CCOc1cc(-c2cc(NCCn3c(C#N)cc4c(OC)ccc(F)c43)ncn2)sc1C(=O)OCCN(C)C [Example 1048, 5-{6-[2-(2-Cyano-7-fluoro-4-methoxy-indol-1-yl)-ethylamino]-pyrimidin-4-yl}-3-ethoxy-thiophene-2-carboxylic acid 2-dimethylamino-ethyl ester]
- IC50 [1, 5]: 4 nM
- IC50 [2, 6]: 10 nM

SMILES: CCOc1cc(-c2cc(NCCn3c(C#N)cc4c(OC)ccc(F)c43)ncn2)ccc1-c1cnn[nH]1 [Example 930, 1-(2-{6-[3-Ethoxy-4-(3H-[1,2,3]triazol-4-yl)-phenyl]-pyrimidin-4-ylamino}-ethyl)-7-fluoro-4-methoxy-1H-indole-2-carbonitrile]
- IC50 [1, 5]: 2 nM
- IC50 [2, 6]: 4 nM

SMILES: CCOc1cc(-c2cc(NCCn3c(C#N)cc4c(Cl)cccc43)ncn2)sc1C(=O)O [Example 909, 5-{6-[2-(4-Chloro-2-cyano-indol-1-yl)-ethylamino]-pyrimidin-4-yl}-3-ethoxy-thiophene-2-carboxylic acid]
- IC50 [1, 5]: 14 nM
- IC50 [2, 6]: 3 nM

SMILES: CCOc1cc(-c2cc(NCCn3c(C#N)cc4c(OC)ccc(F)c43)ncn2)ccc1O [Example 899, 1-{2-[6-(3-Ethoxy-4-hydroxy-phenyl)-pyrimidin-4-ylamino]-ethyl)-7-fluoro-4-methoxy-1H-indole-2-carbonitrile]
- IC50 [1, 5]: 16 nM
- IC50 [2, 6]: 5 nM

SMILES: CCc1cc(-c2cc(NCCn3c(C)cc4c(OC)cc(F)cc43)ncn2)ccc1C(=O)O [compound 283]
- IC50 [1, 3]: 132 nM
- IC50 [2, 4]: 17 nM

SMILES: CCOc1cc(-c2cc(NCCn3c(C)cc4c(Cl)c(F)cc(Cl)c43)ncn2)sc1C(=O)O [Example 883, 5-{6-[2-(4,7-Dichloro-5-fluoro-2-methyl-indol-1-yl)-ethylamino]-pyrimidin-4-yl}-3-ethoxy-thiophene-2-carboxylic acid]
- IC50 [1, 5]: 63 nM
- IC50 [2, 6]: 7 nM

SMILES: COc1ccc(F)c2c1cc(C#N)n2CCNc1cc(-c2ccc3[nH]c(=O)[nH]c3c2)ncn1 [Example 987, 7-Fluoro-1-{2-[6-(2-oxo-2,3-dihydro-1H-benzo[d]imidazol-5-yl)-pyrimidin-4-ylamino]-ethyl}-4-methoxy-1H-indole-2-carbonitrile]
- IC50 [1, 5]: 67 nM
- IC50 [2, 6]: 44 nM

SMILES: Cc1ccc(F)c2c1cc(C)n2CCNc1cc(-c2ccc(-c3noc(=O)[nH]3)cc2)ncn1 [compound 185, 3-(4-{6-[2-(7-Fluoro-2,4-dimethyl-indol-1-yl)-ethylamino]-pyrimidin-4-yl}-phenyl)-4H-[1,2,4]oxadiazol-5-one]
- IC50 [1, 3]: 302 nM
- IC50 [2, 4]: 30 nM

SMILES: CCCc1cc(-c2cc(NCCn3c(C)cc4c(OC)cccc43)ncn2)ccc1C(=O)O [compound 271]
- IC50 [1, 3]: 153 nM
- IC50 [2, 4]: 5 nM

SMILES: CCOc1cc(-c2cc(NCCn3c(C)cc4c(OC)cccc43)ncn2)ccc1-c1noc(=O)[nH]1 [Example 881, 3-(2-Ethoxy-4-{6-[2-(4-methoxy-2-methyl-indol-1-yl)-ethylamino]-pyrimidin-4-yl}-phenyl)-[1,2,4]oxadiazol-5(4H)-one]
- IC50 [1, 5]: 41 nM
- IC50 [2, 6]: 5 nM

SMILES: CCOc1cc(-c2cc(NCCn3c(C)cc4c(F)c(F)ccc43)ncn2)sc1C(=O)O [compound 235]
- IC50 [1, 3]: 60 nM
- IC50 [2, 4]: 2 nM

SMILES: COc1cc(F)cc2c1cc(C)n2CCNc1cc(-c2ccc(-c3noc(=O)[nH]3)cc2)ncn1 [compound 312, 3-(4-{6-[2-(6-Fluoro-4-methoxy-2-methyl-indol-1-yl)-ethylamino]-pyrimidin-4-yl}-phenyl)-4H-[1,2,4]oxadiazol-5-one]
- IC50 [1, 3]: 85 nM
- IC50 [2, 4]: 44 nM

SMILES: CCc1cc(-c2cc(NCCn3c(C)cc4c(OC)ccc(F)c43)ncn2)cc(Cl)c1C(=O)O [compound 346]
- IC50 [1, 3]: 50 nM
- IC50 [2, 4]: 56 nM

SMILES: Cc1cc(F)cc2c1cc(C)n2CCNc1cc(-c2ccc(C(=O)O)c(Cl)c2)ncn1 [compound 105]
- IC50 [1, 3]: 934 nM
- IC50 [2, 4]: 34 nM

SMILES: CCOc1cc(-c2cc(NCCn3c(C)cc4c(OC)ccc(Cl)c43)ncn2)sc1C(=O)O [compound 256]
- IC50 [1, 3]: 29 nM
- IC50 [2, 4]: 3 nM

SMILES: CCOc1cc(-c2cc(NC(C)Cn3c(C)cc4c(OC)ccc(F)c43)ncn2)sc1C(=O)O (racemic) [Example 797, rac-3-Ethoxy-5-{6-[2-(7-fluoro-4-methoxy-2-methyl-indol-1-yl)-1-methyl-ethylamino]-pyrimidin-4-yl}-thiophene-2-carboxylic acid]
- IC50 [1, 5]: 64 nM
- IC50 [2, 6]: 33 nM

SMILES: CCSc1cc(-c2cc(NCCn3c(C#N)cc4c(C)ccc(F)c43)ncn2)ccc1C(=O)O [Example 951, 4-{6-[2-(2-Cyano-7-fluoro-4-methyl-indol-1-yl)-ethylamino]-pyrimidin-4-yl}-2-ethylsulfanyl-benzoic acid]
- IC50 [1, 5]: 27 nM
- IC50 [2, 6]: 15 nM

SMILES: CCOc1cc(-c2cc(NCCn3c(C#N)cc4c(OC)ccc(F)c43)ncn2)ccc1C=O [Example 992, 1-{2-[6-(3-Ethoxy-4-formyl-phenyl)-pyrimidin-4-ylamino]-ethyl}-7-fluoro-4-methoxy-1H-indole-2-carbonitrile]
- IC50 [1, 5]: 35 nM
- IC50 [2, 6]: 27 nM

SMILES: CCOc1c(C(=O)O)ccc(-c2cc(NCCn3c(C#N)cc4c(OC)ccc(F)c43)ncn2)c1F [Example 928, 4-{6-[2-(2-Cyano-7-fluoro-4-methoxy-indol-1-yl)-ethylamino]-pyrimidin-4-yl}-2-ethoxy-3-fluoro-benzoic acid]
- IC50 [1, 5]: 45 nM
- IC50 [2, 6]: 37 nM

SMILES: CCC1NC(=O)c2ccc(-c3cc(NCCn4c(C)cc5c(C)ccc(F)c54)ncn3)cc21 (racemic) [compound 207]
- IC50 [1, 3]: 645 nM
- IC50 [2, 4]: 19 nM

SMILES: COc1ccc(F)c2c1cc(C)n2CCNc1cc(-c2ccc(-c3ncno3)cc2)ncn1 [compound 186, [2-(7-Fluoro-4-methoxy-2-methyl-indol-1-yl)-ethyl]-[6-(4-[1,2,4]oxadiazol-5-yl-phenyl)-pyrimidin-4-yl]-amine]
- IC50 [1, 3]: 124 nM
- IC50 [2, 4]: 7 nM

SMILES: CSc1cc(-c2cc(NCCn3c(C)cc4c(Cl)ccc(Cl)c43)ncn2)cc(Cl)c1C(=O)O [compound 142, 2-Chloro-4-{6-[2-(4,7-dichloro-2-methyl-indol-1-yl)-ethylamino]-pyrimidin-4-yl}-6-methylsulfanyl-benzoic acid]
- IC50 [1, 3]: 588 nM
- IC50 [2, 4]: 16 nM

SMILES: CSc1cc(-c2cc(NCCn3c(C)cc4c(F)c(F)cc(Cl)c43)ncn2)cc(Cl)c1C(=O)O [compound 339, 2-Chloro-4-{6-[2-(7-chloro-4,5-difluoro-2-methyl-indol-1-yl)-ethylamino]-pyrimidin-4-yl}-6-methylsulfanyl-benzoic acid]
- IC50 [1, 3]: 989 nM
- IC50 [2, 4]: 5 nM

SMILES: CCSc1cc(-c2cc(NCCn3c(C)cc4c(C)c(F)cc(Cl)c43)ncn2)ccc1C(=O)O [compound 341, 4-{6-[2-(7-Chloro-5-fluoro-2,4-dimethyl-indol-1-yl)-ethylamino]-pyrimidin-4-yl}-2-ethylsulfanyl-benzoic acid]
- IC50 [1, 3]: 396 nM
- IC50 [2, 4]: 42 nM

SMILES: CCOc1cc(-c2cc(NCCn3c(C)cc4cc(OC)cc(F)c43)ncn2)sc1C(=O)O [compound 259]
- IC50 [1, 3]: 127 nM
- IC50 [2, 4]: 37 nM

SMILES: COc1ncc(-c2cc(NCCn3c(C)cc4c(OC)ccc(F)c43)ncn2)s1 [compound 3]
- IC50 [1, 3]: 769 nM
- IC50 [2, 4]: 100 nM

SMILES: CCCSc1cc(-c2cc(NCCn3c(C#N)cc4c(OC)cc(F)cc43)ncn2)ccc1C(=O)O [Example 936, 4-{6-[2-(2-Cyano-6-fluoro-4-methoxy-indol-1-yl)-ethylamino]-pyrimidin-4-yl}-2-propylsulfanyl-benzoic acid]
- IC50 [1, 5]: 8 nM
- IC50 [2, 6]: 18 nM
